Measured values from US10821115B2, “Compounds that inhibit Mcl-1 protein” (priority 2017, dated 2020).
Where two headings read alike, the source gives them in different places.

What was measured:
[1] = tested on: human multiple myeloma cell line, OPM-2; test: Cell viability assay (OPM-2 10 FBS), CellTiter-Glo; type: cell-based
How it was run: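 3000 cells/well, RPMI 1640 + 10% FBS; serial compound dilutions, 16 h, 37 °C/5% CO2.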

[2] = molecular target: recombinant human Mcl-1 (residues 171-327) / Bim interaction (Homo sapiens (Human), UniProt Q07820); test: biochemical; type: binding; conditions: TR-FRET, Mcl-1(171-327) / biotin-Bim (51-76); read-out: Mcl-1 HTRF IC50
[3] = Homo sapiens, OPM-2, 16 h, read-out: OPM-2 10% FBS IC50 IP, OPM-2 cells, 10% FBS, 16 h, CellTiter-Glo
[4] = read-out: OPM-2 10% FBS IC50 IP, OPM-2 cells, 10% FBS, 16 h, CellTiter-Glo

Sequence of recombinant human Mcl-1 (residues 171-327) / Bim interaction (Q07820 171-327): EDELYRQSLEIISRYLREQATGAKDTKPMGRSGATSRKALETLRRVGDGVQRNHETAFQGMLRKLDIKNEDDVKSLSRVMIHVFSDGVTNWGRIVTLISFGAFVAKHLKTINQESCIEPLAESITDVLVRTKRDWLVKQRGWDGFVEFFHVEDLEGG

SMILES | IC50 [1, 3] | IC50 [2] | IC50 [1, 4]
CO[C@@]1(CC(=O)N2CCN(C)C[C@H]2C)/C=C/C[C@H](C)[C@@H](C)S(=O)(=O)NC(=O)c2ccc3c(c2)N(C[C@@H]2CC[C@H]21)C[C@@]1(CCCc2cc(Cl)ccc21)CO3 [Example 100417, (1S,3′R,6′R,7′S,8′E,11′S,12′R)-6-chloro-7′-(2-((2R)-2,4-dimethyl-1-piperazinyl)-2-oxoethyl)-7′-methoxy-11′,12′-dimethyl-3,4-dihydro-2H,15′H-spiro[naphthalene-1,22′-[20]oxa[13]thia[1,14]diazatetracyclo [14.7.2.0~3,6~.0~19,24~]pentacosa[8,16,18,24]tetraen]-15′-one 13′,13′-dioxide] | 379 nM | 0.345 nM | 
CO[C@@]1(CCN2CCOCC2)/C=C/C[C@H](C)[C@@H](C)S(=O)(=O)NC(=O)c2ccc3c(c2)N(C[C@@H]2CC[C@H]21)C[C@@]1(CCCc2cc(Cl)ccc21)CO3 [Example 100419, (1S,3′R,6′R,7′S,8′E,11′S,12′R)-6-chloro-7′-methoxy-11′,12′-dimethyl-7′-(2-(4-morpholinyl)ethyl)-3,4-dihydro-2H,15′H-spiro[naphthalene-1,22′-[20]oxa[13]thia[1,14]diazatetracyclo [14.7.2.0~3,6~.0~19,24~]pentacosa[8,16,18,24]tetraen]-15′-one 13′,13′-dioxide] | 416 nM | 0.277 nM | 
C[C@@H]1[C@@H](C)C/C=C/[C@@](O)(C#CCN2CCCCC2)[C@@H]2CC[C@H]2CN2C[C@@]3(CCCc4cc(Cl)ccc43)COc3ccc(cc32)C(=O)NS1(=O)=O [Example 100421, (1S,3′R,6′R,7′S,8′E,11′S,12′R)-6-chloro-7′-hydroxy-11′,12′-dimethyl-7′-(3-(1-piperidinyl)-1-propyn-1-yl)-3,4-dihydro-2H,15′H-spiro[naphthalene-1,22′-[20]oxa[13]thia[1,14]diazatetracyclo [14.7.2.0~3,6~.0~19,24~]pentacosa[8,16,18,24]tetraen]-15′-one 13′,13′-dioxide] |  | 3.93 nM | 4930 nM
C[C@@H]1[C@@H](C)C/C=C/[C@@](O)(C#CCCO)[C@@H]2CC[C@H]2CN2C[C@@]3(CCCc4cc(Cl)ccc43)COc3ccc(cc32)C(=O)NS1(=O)=O [Example 100422, (1S,3′R,6′R,7′S,8′E,11′S,12′R)-6-chloro-7′-hydroxy-7′-(4-hydroxy-1-butyn-1-yl)-11′,12′-dimethyl-3,4-dihydro-2H,15′H-spiro[naphthalene-1,22′-[20]oxa[13]thia[1,14]diazatetracyclo [14.7.2.0~3,6~.0~19,24~]pentacosa[8,16,18,24]tetraen]-15′-one 13′,13′-dioxide] | 182 nM | 0.174 nM | 
COCCC#C[C@]1(OC)/C=C/C[C@H](C)[C@@H](C)S(=O)(=O)NC(=O)c2ccc3c(c2)N(C[C@@H]2CC[C@H]21)C[C@@]1(CCCc2cc(Cl)ccc21)CO3 [Example 100423, (1S,3′R,6′R,7′S,8′E,11′S,12′R)-6-chloro-7′-methoxy-7′-(4-methoxy-1-butyn-1-yl)-11′,12′-dimethyl-3,4-dihydro-2H,15′H-spiro[naphthalene-1,22′-[20]oxa[13]thia[1,14]diazatetracyclo [14.7.2.0~3,6~.0~19,24~]pentacosa[8,16,18,24]tetraen]-15′-one 13′,13′-dioxide] | 99 nM | 0.056 nM | 
C[C@@H]1[C@@H](C)C/C=C/[C@@](O)(C#CCN2CCCCC2)[C@@H]2CC[C@H]2CN2C[C@@]3(CCCc4cc(Cl)ccc43)COc3ccc(cc32)C(=O)NS1(=O)=O [Example 100424, (1S,3′R,6′R,7′S,8′E,11′S,12′R)-6-chloro-7′-hydroxy-11′,12′-dimethyl-7′-(3-(1-piperidinyl)-1-propyn-1-yl)-3,4-dihydro-2H,15′H-spiro[naphthalene-1,22′-[20]oxa[13]thia[1,14]diazatetracyclo [14.7.2.0~3,6~.0~19,24~]pentacosa[8,16,18,24]tetraen]-15′-one 13′,13′-dioxide] |  | 0.249 nM | 469 nM
CO[C@]1(CCN2CCN3CCOC[C@@H]3C2)/C=C/C[C@H](C)[C@@H](C)S(=O)(=O)NC(=O)c2ccc3c(c2)N(C[C@@H]2CC[C@H]21)C[C@@]1(CCCc2cc(Cl)ccc21)CO3 [Example 100425, (1S,3′R,6′R,7′R,8′E,11′S,12′R)-6-chloro-7′-(2-((9aS)-hexahydropyrazino[2,1-c][1,4]oxazin-8(1H)-yl)ethyl)-7′-methoxy-11′,12′-dimethyl-3,4-dihydro-2H,15′H-spiro[naphthalene-1,22′-[20]oxa[13]thia[1,14]diazatetracyclo [14.7.2.0~3,6~.0~19,24~]pentacosa[8,16,18,24]tetraen]-15′-one 13′,13′-dioxide] | 717 nM | 0.165 nM | 
CO[C@]1(C#CCCO)/C=C/C[C@H](C)[C@@H](C)S(=O)(=O)NC(=O)c2ccc3c(c2)N(C[C@@H]2CC[C@H]21)C[C@@]1(CCCc2cc(Cl)ccc21)CO3 [Example 100426, (1S,3′R,6′R,7′R,8′E,11′S,12′R)-6-chloro-7′-(4-hydroxy-1-butyn-1-yl)-7′-methoxy-11′,12′-dimethyl-3,4-dihydro-2H,15′H-spiro[naphthalene-1,22′-[20]oxa[13]thia[1,14]diazatetracyclo [14.7.2.0~3,6~.0~19,24~]pentacosa[8,16,18,24]tetraen]-15′-one 13′,13′-dioxide] | 110 nM | 0.197 nM | 
CO[C@@]1(C#CCCO)/C=C/C[C@H](C)[C@@H](C)S(=O)(=O)NC(=O)c2ccc3c(c2)N(C[C@@H]2CC[C@H]21)C[C@@]1(CCCc2cc(Cl)ccc21)CO3 [Example 100427, (1S,3′R,6′R,7′S,8′E,11′S,12′R)-6-chloro-7′-(4-hydroxy-1-butyn-1-yl)-7′-methoxy-11′,12′-dimethyl-3,4-dihydro-2H,15′H-spiro[naphthalene-1,22′-[20]oxa[13]thia[1,14]diazatetracyclo [14.7.2.0~3,6~.0~19,24~]pentacosa[8,16,18,24]tetraen]-15′-one 13′,13′-dioxide] | 342 nM | 0.209 nM | 
CO[C@@]1(CCN2CCCCC2)/C=C/C[C@H](C)[C@@H](C)S(=O)(=O)NC(=O)c2ccc3c(c2)N(C[C@@H]2CC[C@H]21)C[C@@]1(CCCc2cc(Cl)ccc21)CO3 [Example 100428, (1S,3′R,6′R,7′S,8′E,11′S,12′R)-6-chloro-7′-methoxy-11′,12′-dimethyl-7′-(2-(1-piperidinyl)ethyl)-3,4-dihydro-2H,15′H-spiro[naphthalene-1,22′-[20]oxa[13]thia[1,14]diazatetracyclo [14.7.2.0~3,6~.0~19,24~]pentacosa[8,16,18,24]tetraen]-15′-one 13′,13′-dioxide] | 218 nM | 0.21 nM | 
CO[C@@]1(CCN2CCN3CCOC[C@@H]3C2)/C=C/C[C@H](C)[C@@H](C)S(=O)(=O)NC(=O)c2ccc3c(c2)N(C[C@@H]2CC[C@H]21)C[C@@]1(CCCc2cc(Cl)ccc21)CO3 [Example 100429, (1S,3′R,6′R,7′S,8′E,11′S,12′R)-6-chloro-7′-(2-((9aS)-hexahydropyrazino[2,1-c][1,4]oxazin-8(1H)-yl)ethyl)-7′-methoxy-11′,12′-dimethyl-3,4-dihydro-2H,15′H-spiro[naphthalene-1,22′-[20]oxa[13]thia[1,14]diazatetracyclo [14.7.2.0~3,6~.0~19,24~]pentacosa[8,16,18,24]tetraen]-15′-one 13′,13′-dioxide] | 1420 nM | 0.176 nM | 
CO[C@@]1(CCN2CCN(C)C(=O)C2)/C=C/C[C@H](C)[C@@H](C)S(=O)(=O)NC(=O)c2ccc3c(c2)N(C[C@@H]2CC[C@H]21)C[C@@]1(CCCc2cc(Cl)ccc21)CO3 [Example 100430, (1S,3′R,6′R,7′S,8′E,11′S,12′R)-6-chloro-7′-methoxy-11′,12′-dimethyl-7′-(2-(4-methyl-3-oxo-1-piperazinyl)ethyl)-3,4-dihydro-2H,15′H-spiro[naphthalene-1,22′-[20]oxa[13]thia[1,14]diazatetracyclo [14.7.2.0~3,6~.0~19,24~]pentacosa[8,16,18,24]tetraen]-15′-one 13′,13′-dioxide] | 358 nM | 0.057 nM | 
CO[C@@]1(CCN2CC(C)(N(C)C)C2)/C=C/C[C@H](C)[C@@H](C)S(=O)(=O)NC(=O)c2ccc3c(c2)N(C[C@@H]2CC[C@H]21)C[C@@]1(CCCc2cc(Cl)ccc21)CO3 [Example 100431, (1S,3′R,6′R,7′S,8′E,11′S,12′R)-6-chloro-7′-(2-(3-(dimethylamino)-3-methyl-1-azetidinyl)ethyl)-7′-methoxy-11′,12′-dimethyl-3,4-dihydro-2H,15′H-spiro[naphthalene-1,22′-[20]oxa[13]thia[1,14]diazatetracyclo [14.7.2.0~3,6~.0~19,24~]pentacosa[8,16,18,24]tetraen]-15′-one 13′,13′-dioxide] | 290 nM | 0.043 nM | 
C[C@@H]1[C@@H](C)C/C=C/[C@@](O)(C#CCC2CCOCC2)[C@@H]2CC[C@H]2CN2C[C@@]3(CCCc4cc(Cl)ccc43)COc3ccc(cc32)C(=O)NS1(=O)=O [Example 100432, (1S,3′R,6′R,7′S,8′E,11′S,12′R)-6-chloro-7′-hydroxy-11′,12′-dimethyl-7′-(3-(tetrahydro-2H-pyran-4-yl)-1-propyn-1-yl)-3,4-dihydro-2H,15′H-spiro[naphthalene-1,22′-[20]oxa[13]thia[1,14]diazatetracyclo [14.7.2.0~3,6~.0~19,24~]pentacosa[8,16,18,24]tetraen]-15′-one 13′,13′-dioxide] | 711 nM | 0.228 nM | 
